Values after ≈ are worked out from the molar mass of the structure shown. Active and inactive are the calls of the source. The rule behind the calls is not given here.
Tests used:
[1] = test system: A2780; assay: Antiproliferative activity against human A2780 cells assessed as cell viability after 72 hrs by SRB assay in presence of nitotinamide mononucleotide; assay type: functional, cell-based
[2] = biological target: Nicotinamide phosphoribosyltransferase (Homo sapiens, UniProt P43490); assay: Inhibition of C-terminal His-6-tagged full length human NAMPT expressed in Escherichia coli (DE3) cells after 30 mins by mass spectrometry-based analysis
[3] = test system: A2780; assay: Antiproliferative activity against human A2780 cells assessed as cell viability after 72 hrs by SRB assay; assay type: functional, cell-based; conditions: A2780, 72 h
[4] = Aqueous solubility of the compound in PBS at pH 7.2 by LC/CLND analysis; assay type: physicochemical
[5] = Apparent permeability from apical to basolateral side in MDCK cells at 10 uM by LC-MS/MS analysis; assay type: ADME, cell-based, Canis lupus familiaris; conditions: dog
[6] = Fraction unbound in mouse plasma at 5 uM by LC-MS/MS analysis; assay type: ADME, cell-free

Nicotinamide phosphoribosyltransferase, sequence (P43490 whole entry): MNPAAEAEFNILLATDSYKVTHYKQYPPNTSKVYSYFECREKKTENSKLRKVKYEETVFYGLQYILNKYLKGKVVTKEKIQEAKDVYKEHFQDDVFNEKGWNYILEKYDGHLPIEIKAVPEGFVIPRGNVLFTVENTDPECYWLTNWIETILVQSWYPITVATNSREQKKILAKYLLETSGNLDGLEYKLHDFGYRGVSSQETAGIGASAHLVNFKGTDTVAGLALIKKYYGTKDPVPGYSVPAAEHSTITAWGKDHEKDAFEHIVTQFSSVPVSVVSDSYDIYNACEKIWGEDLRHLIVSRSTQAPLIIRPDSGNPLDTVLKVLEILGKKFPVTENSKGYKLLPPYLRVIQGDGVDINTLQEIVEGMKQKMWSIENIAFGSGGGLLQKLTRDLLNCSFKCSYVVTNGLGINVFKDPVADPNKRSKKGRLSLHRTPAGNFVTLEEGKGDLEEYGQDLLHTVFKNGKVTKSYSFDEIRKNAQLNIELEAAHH

SMILES: O=C(NCc1ccc(S(=O)(=O)c2ccccc2)cc1)c1cc2cn[nH]c2cn1
- inhibition [1]: inactive
- IC50 [2]: > 2000 nM
- IC50 [3]: > 2000 nM

SMILES: O=C(NCc1ccc(S(=O)(=O)c2ccccc2)cc1)c1ccc2[nH]ncc2n1
- inhibition [1]: inactive
- IC50 [2]: 1300 nM
- IC50 [3]: > 2000 nM

SMILES: O=C(NCc1ccc(S(=O)(=O)c2ccccc2)cc1)c1cnc2[nH]ccc2c1
- inhibition [1]: inactive
- IC50 [3]: > 2000 nM

SMILES: O=C(NCc1ccc(S(=O)(=O)N2CCCCC2)cc1)c1ccc2nccn2c1
- inhibition [1]: inactive

SMILES: O=C(NCc1ccc(S(=O)(=O)N2CCC(O)CC2)cc1)c1cnc2[nH]ncc2c1
- inhibition [1]: inactive
- IC50 [2]: 410 nM
- IC50 [3]: 210 nM

SMILES: CCCn1cc(S(=O)(=O)c2ccc(CNC(=O)c3cnc4[nH]ncc4c3)cc2)cn1
- inhibition [1]: inactive
- solubility [4]: 8.8 µM (≈ 3.74 µg/mL)
- Papp A→B at 10 µM [5]: 1.9 ×10⁻⁶ cm/s
- fraction unbound at 5 µM [6]: 0.071
- IC50 [2]: 10 nM
- IC50 [3]: 6.9 nM

SMILES: O=C(NCc1ccc(S(=O)(=O)c2ccc(N3CCOCC3)nc2)cc1)c1cnc2[nH]ncc2c1
- inhibition [1]: inactive
- solubility [4]: < 1 µM
- Papp A→B at 10 µM [5]: 0.85 ×10⁻⁶ cm/s
- fraction unbound at 5 µM [6]: 0.019
- IC50 [2]: 4.5 nM
- IC50 [3]: 1.3 nM

SMILES: O=C(NCc1ccc(S(=O)(=O)N2CCOCC2)cc1)c1cnc2[nH]ncc2c1
- inhibition [1]: inactive
- IC50 [2]: 370 nM
- IC50 [3]: 280 nM

SMILES: COC1CCN(S(=O)(=O)c2ccc(CNC(=O)c3cnc4[nH]ncc4c3)cc2)CC1
- inhibition [1]: inactive
- IC50 [2]: 400 nM
- IC50 [3]: 39 nM

SMILES: O=C(NCc1ccc(S(=O)(=O)c2cnc3ccccc3c2)cc1)c1cnc2[nH]ncc2c1
- inhibition [1]: inactive
- solubility [4]: < 1 µM
- Papp A→B at 10 µM [5]: 1.6 ×10⁻⁶ cm/s
- fraction unbound at 5 µM [6]: 0.009
- IC50 [2]: 8.2 nM
- IC50 [3]: 2.2 nM

SMILES: O=C(NCc1ccc(S(=O)(=O)N2CCCCC2)cc1)c1cnc2[nH]ncc2c1
- inhibition [1]: inactive
- IC50 [2]: 100 nM
- IC50 [3]: 88 nM

SMILES: O=C(NCc1ccc(S(=O)(=O)N2CCN(C3COC3)CC2)cc1)c1cnc2[nH]ncc2c1
- inhibition [1]: inactive
- IC50 [2]: 440 nM
- IC50 [3]: 45 nM

SMILES: NC1CCN(S(=O)(=O)c2ccc(CNC(=O)c3cnc4[nH]ncc4c3)cc2)CC1
- inhibition [1]: inactive
- IC50 [2]: 390 nM
- IC50 [3]: 330 nM

SMILES: O=C(NCc1ccc(S(=O)(=O)c2ccccc2)cc1)c1ccc2nccn2c1
- inhibition [1]: inactive

SMILES: CCn1cc(S(=O)(=O)c2ccc(CNC(=O)c3cnc4[nH]ncc4c3)cc2)cn1
- inhibition [1]: inactive
- IC50 [2]: 190 nM
- IC50 [3]: 31 nM

SMILES: O=C(NCc1ccc(S(=O)(=O)N2CCC(N3CCCC3)CC2)cc1)c1cnc2[nH]ncc2c1
- inhibition [1]: inactive
- IC50 [3]: 35 nM

SMILES: O=C(NCc1ccc(S(=O)(=O)N2CC3(CCOCC3)C2)cc1)c1cnc2[nH]ncc2c1
- inhibition [1]: inactive
- IC50 [2]: 110 nM
- IC50 [3]: 45 nM

SMILES: CC(C)n1cc(S(=O)(=O)c2ccc(CNC(=O)c3cnc4[nH]ncc4c3)cc2)cn1
- inhibition [1]: inactive
- IC50 [2]: 99 nM
- IC50 [3]: 12 nM

SMILES: N#CC1CCN(S(=O)(=O)c2ccc(CNC(=O)c3cnc4[nH]ncc4c3)cc2)CC1
- inhibition [1]: inactive
- IC50 [2]: 410 nM
- IC50 [3]: > 2000 nM

SMILES: Cn1ncc2cc(C(=O)NCc3ccc(S(=O)(=O)c4ccccc4)cc3)cnc21
- inhibition [1]: inactive
- IC50 [2]: 1700 nM
- IC50 [3]: > 2000 nM

SMILES: O=C(NCc1ccc(S(=O)(=O)c2cc(F)cc(F)c2)cc1)c1cnc2[nH]ncc2c1
- inhibition [1]: inactive
- solubility [4]: < 1 µM
- Papp A→B at 10 µM [5]: 7.8 ×10⁻⁶ cm/s
- fraction unbound at 5 µM [6]: 0.114
- IC50 [3]: 6 nM

SMILES: O=C(NCc1ccc(S(=O)(=O)N2CCCCC2)cc1)c1ccc2[nH]ncc2c1
- inhibition [1]: inactive
- IC50 [2]: > 2000 nM
- IC50 [3]: > 2000 nM

SMILES: O=C(NCc1ccc(S(=O)(=O)c2ccccc2)cc1)c1cnc2[nH]ncc2c1
- inhibition [1]: inactive
- IC50 [2]: 54 nM
- IC50 [3]: 66 nM

— ChEMBL document CHEMBL3259558, “Identification of amides derived from 1H-pyrazolo[3,4-b]pyridine-5-carboxylic acid as potent inhibitors of human nicotinamide phosphoribosyltransferase (NAMPT)” (Bioorg Med Chem Lett, 2013)
